Data from publication PMC4198181, “Gold(I) Complexes of 9-Deazahypoxanthine as Selective Antitumor and Anti-Inflammatory Agents” (PLoS ONE, 2014).

Assays:
[1] = test system: A549 lung carcinoma cells; experiment: MTT in vitro cytotoxicity, A549; assay type: cell-based, human; conditions: 24 h treatment, read-out: IC50±S.E., A549
Procedure: (§1) In vitro cytotoxic activity was determined by the MTT assay in human breast adenocarcinoma (MCF7; ECACC no. 86012803), human osteosarcoma (HOS; ECACC no. 87070202), lung carcinoma (A549; ECACC no. 86012804), malignant melanoma (G361; ECACC no. 88030401), cervix epitheloid carcinoma (HeLa; ECACC no. 93021013), ovarian carcinoma (A2780; ECACC no. 93112519), cisplatin-resistant ovarian carcinoma (A2780R; […] ECACC no 105092802) cancer cell lines, purchased from European Collection of Cell Cultures (ECACC). […] The primary culture of human hepatocytes (HEP220, batch number HEP220819) was obtained from Biopredic International (France). The culture medium was Williams and HAM's F-12 (1∶1) supplemented with penicillin, streptomycin, ascorbic acid, linoleic acid, holo-transferin, ethanolamine, glucagon, insulin, dexamethasone, pyruvate, glucose, glutamine, amphotericin. The medium was enriched for plating with 2% foetal calf serum (v/v). The medium was exchanged for a serum-free medium the day after and the culture was stabilized for additional 24 h. Thereafter, the cells were ready for treatments. […] The MTT assay was performed spectrophotometrically at 540 nm (TECAN, Schoeller Instruments LLC). The cytotoxicity data were expressed as the percentage of viability, where 100% represented the treatments with vehicle (0.1% DMF or 0.1% DMSO). The cytotoxicity data from the cancer cell lines were acquired from three independent experiments (conducted in triplicate) using cells from different passages. The IC50 values were calculated from viability curves. The results are presented as arithmetic means±standard error of the mean (S.E.).

[2] = test system: polymorphonuclear cells infiltration in hind paw tissue; experiment: Ex vivo histological evaluation of hind paw tissue (HE staining, PMN infiltration); assay type: in vivo, Wistar-SPF rats; conditions: 6 h after carrageenan, Indomethacin 5 mg/kg
Procedure: The carrageenan-induced hind paw edema model was used for the determination of anti-inflammatory activity. Animals were i.p. pretreated with complexes 2, 4, and 5 (the dosages of the individual complexes were adjusted to contain the same amount of gold as in 10 mg/kg dose of Auranofin), Indomethacin (5 mg/kg), or 25% DMSO (v/v in water) 30 min prior to the injection of 1% λ-carrageenan solution (50 µL) into the plantar side of right hind paws of the rats. The paw volume was measured immediately after the carrageenan injection (this value was set-up as baseline value for the hind paw volume) and during the next 6 h after the administration of the edematogenic agent using a plethysmometer (model 7159, Ugo Basile, Varese, Italy). The degree of swelling was evaluated as a percentage of the change of the volume of the right hind paw after the carrageenan treatment from the baseline volume. A non-steroidal anti-inflammatory drug Indomethacin was used as a positive control and the obtained data were also compared with the previously reported profile of antiedematous activity for Auranofin [38]. After 6 h, the animals were sacrificed and the edematous feet were dissected, the tissue from the plantar parts was extracted, fixed and stained by a standard hematoxylin/eosin (HE) staining for cytological evaluation of polymorphonuclear cells infiltration.
To assess the tissue consequences connected with the reduction of inflammation caused by the tested compounds after the intraplantar injection of carrageenan, the histopathological observations were made on the tissue sections obtained from the laboratory animals after the plethysmometric experiments were finished. All animals were sacrificed by cervical dislocation, and immediately after that, the tissue samples were taken from the plantar area of hind paws. The histopathological changes in tissues, stained by the standard HE staining (see Figure 10), were evaluated by the presence of the inflammation infiltrate, which contained mainly neutrophils (polymorphonuclear cells - PMN).

[3] = test system: THP-1 monocytic leukaemia cells; experiment: WST-1 in vitro cytotoxicity, THP-1; assay type: cell-based, human; conditions: 24 h treatment, WST-1, 0.16–10.00 µM; read-out: IC50±S.E., THP-1
Procedure: Before the in vitro anti-inflammatory testing, in vitro cytotoxicity on human monocytic leukaemia cells (THP-1, ECACC no. 88081201) was determined using the WST-1 assay. The THP-1 cells (floating monocytes, 500 000 cells/mL) were incubated in 100 µL of the serum-free RPMI 1640 medium and seeded into 96-well plates in triplicate at 37°C. Measurements were taken 24 h after the treatment with the tested compounds dissolved in 0.1% DMSO in the concentration range of 0.16–10.00 µM. Viability was determined by the WST-1 test according to the manufacturer's manual. The amount of the formed formazan (which correlates to the number of metabolically active cells in the culture) was calculated as a percentage of the control cells, which were treated only with 0.1% DMSO and was set-up as 100%. The IC50 values of the tested compounds were calculated from the obtained data. The WST-1 assay was performed spectrophotometrically at 440 nm (FLUOstar Omega, BMG Labtech).
The cytotoxicity data were expressed as the percentage of viability, where 100% represented the treatments with vehicle (0.1% DMF or 0.1% DMSO). The cytotoxicity data from the cancer cell lines were acquired from three independent experiments (conducted in triplicate) using cells from different passages. The IC50 values were calculated from viability curves. The results are presented as arithmetic means±standard error of the mean (S.E.). The significance of the differences between the results was assessed by the ANOVA analysis with p<0.05 considered to be significant (QC Expert 3.2, Statistical software, TriloByte Ltd., Pardubice, Czech Republic).

[4] = test system: G361 malignant melanoma cells; experiment: MTT in vitro cytotoxicity, G361; assay type: cell-based, human; conditions: 24 h treatment, read-out: IC50±S.E., G361
Procedure: as §1

Structure (SMILES) | IC50 [1] [µM] | PMN (neutrophil) infiltrate in hind paw tissue sections [2] | IC50 [3] [µM] | IC50 [4] [µM]
CC(C)Oc1ncnc2cc[n]([Au])c12.c1ccc(P(c2ccccc2)c2ccccc2)cc1 [complex 2, [Au(L2)(PPh3)]] | 17.2 ± 0.7 | mainly scarce and diffuse | 0.8 ± 0.1 | 3.4 ± 0.1
[Au][n]1ccc2ncnc(OCCc3ccccc3)c21.c1ccc(P(c2ccccc2)c2ccccc2)cc1 [complex 5] | 18.3 ± 0.5 | massive presence of PMN cells | 1.4 ± 0.1 | 3.5 ± 0.2
